Test results: patent publication US9302999B2, “Substituted triazoles as herbicides” (E. I. DU PONT DE NEMOURS AND COMPANY, priority 2012, dated 2016)

Columns and labels:
Format in all cases: in vivo
[1] = system: barnyardgrass (Echinochloa crus-galli); assay: Test A pre-/postemergence: barnyardgrass
Procedure, shortened: (§1)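 Plants in loam–sand blend were treated with test chemicals in non-phytotoxic solvent with surfactant, either as preemergence directed soil spray or postemergence at 2–10 cm, one- to two-leaf stage. After about ten days in greenhouse, injury was rated visually against untreated controls on a 0–100 scale (100 = complete control).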

[2] = system: crabgrass, large (large crabgrass, Digitaria sanguinalis); assay: Test A pre-/postemergence: crabgrass, large
Procedure, shortened: as §1

[3] = system: foxtail, giant (giant foxtail, Setaria faberii); assay: Test A pre-/postemergence: foxtail, giant
Procedure, shortened: as §1

[4] = system: morningglory (Ipomoea spp.); assay: Test A pre-/postemergence: morningglory
Procedure, shortened: as §1

[5] = system: pigweed (Amaranthus retroflexus); assay: Test A pre-/postemergence: pigweed
Procedure, shortened: as §1

[6] = system: velvetleaf (Abutilon theophrasti); assay: Test A pre-/postemergence: velvetleaf
Procedure, shortened: as §1

[7] = system: wheat (Triticum aestivum); assay: Test A pre-/postemergence: wheat
Procedure, shortened: as §1

corn (Zea mays) = assay: Test A pre-/postemergence: corn
Procedure, shortened: as §1

rice (Oryza sativa) = assay: Test B flooded paddy: rice; conditions: Flood; 125 g ai/ha; applied to paddy water at 2-leaf stage; visually evaluated after 13 to 15 days
Procedure, shortened: (§2)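 Plants were grown to the 2-leaf stage and pots flooded to 3 cm above soil. Compounds were applied directly into the paddy water, with depth kept for the test. After 13–15 days in greenhouse, response was rated visually against controls on a 0 (no effect) to 100 (complete control) scale.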

[8] = system: sedge, umbrella (small-flower umbrella sedge Cyperus difformis); assay: Test B flooded paddy: sedge, umbrella; conditions: Flood; 125 g ai/ha; applied to paddy water at 2-leaf stage; visually evaluated after 13 to 15 days
Procedure, shortened: as §2

[9] = system: ducksalad (Heteranthera limosa); assay: Test B flooded paddy: ducksalad; conditions: Flood; 125 g ai/ha; applied to paddy water at 2-leaf stage; visually evaluated after 13 to 15 days
Procedure, shortened: as §2

[10] = system: barnyardgrass (Echinochloa crus-galli); assay: Test B flooded paddy: barnyardgrass; conditions: Flood; 125 g ai/ha; applied to paddy water at 2-leaf stage; visually evaluated after 13 to 15 days
Procedure, shortened: as §2

[11] = Postemergence, 125 g ai/ha, 0 to 100 scale, 0 is no effect, 100 is complete control
[12] = Postemergence, 500 g ai/ha, 0 to 100 scale, 0 is no effect, 100 is complete control
[13] = Preemergence, 125 g ai/ha, 0 to 100 scale where 0 is no effect and 100 is complete control
[14] = Preemergence, 500 g ai/ha, 0 to 100 scale (0 no effect, 100 complete control)

Row | Compound | Plant response rating, Barnyardgrass [1, 11] | Barnyardgrass plant response rating [1, 12] | Plant response rating, Barnyardgrass [1, 13] | Plant response rating, Barnyardgrass [1, 14] | Plant response rating, Crabgrass, Large [2, 11] | Crabgrass, Large plant response rating [2, 12] | Plant response rating, Crabgrass, Large [2, 13] | Plant response rating, Crabgrass, Large [2, 14] | Plant response rating, Foxtail, Giant [3, 11] | Foxtail, Giant plant response rating [3, 12] | Plant response rating, Foxtail, Giant [3, 13] | Plant response rating, Foxtail, Giant [3, 14] | Plant response rating, Morningglory [4, 11] | Morningglory plant response rating [4, 12] | Plant response rating, Pigweed [5, 11] | Pigweed plant response rating [5, 12] | Plant response rating, Pigweed [5, 13] | Plant response rating, Pigweed [5, 14] | Plant response rating, Velvetleaf [6, 11] | Velvetleaf plant response rating [6, 12] | also measured
1 | COc1nn(-c2ccc(F)cc2F)nc1Cc1ccnc(C(F)(F)F)c1 [Compound 165] | 40 | 90 | 30 | 100 | 70 | 90 | 100 | 100 | 60 | 90 | 90 | 100 | 60 | 80 | 100 | 100 | 100 | 100 | 40 | 70 | Plant response rating, Velvetleaf [6, 13]: 0; Plant response rating, Velvetleaf [6, 14]: 10; Plant response rating, Wheat [7, 11]: 20; Wheat plant response rating [7, 12]: 30; Plant response rating, Wheat [7, 13]: 0; Plant response rating, Wheat [7, 14]: 0; Plant response rating, Corn (corn (Zea mays); [11]): 20; Corn plant response rating (corn (Zea mays); [12]): 30; Plant response rating, Corn (corn (Zea mays); [13]): 0; Plant response rating, Corn (corn (Zea mays); [14]): 10; Plant response rating, Rice (0 to 100 scale, 0 is no effect, 100 is complete control) (rice (Oryza sativa)): 20; Plant response rating, Sedge, Umbrella (0 to 100 scale, 0 is no effect, 100 is complete control) [8]: 70; Plant response rating, Ducksalad (0 to 100 scale, 0 is no effect, 100 is complete control) [9]: 40; Plant response rating, Barnyardgrass (0 to 100 scale, 0 is no effect, 100 is complete control) [10]: 10
2 | CC(C)(C)c1nn(-c2ccc(F)cc2)nc1C(=O)c1ccnc(C(F)(F)F)c1 [Compound 175] | 0 | 0 | 0 | 0 | 0 | 0 | 0 | 0 | 0 | 0 | 0 | 0 | 0 | 0 | 0 | 0 | 0 | 0 | 0 | 0 | Plant response rating, Morningglory [4, 13]: 0; Plant response rating, Morningglory [4, 14]: 0; Plant response rating, Velvetleaf [6, 13]: 0; Plant response rating, Velvetleaf [6, 14]: 0; Plant response rating, Wheat [7, 11]: 0; Wheat plant response rating [7, 12]: 0; Plant response rating, Wheat [7, 13]: 0; Plant response rating, Wheat [7, 14]: 0; Plant response rating, Corn (corn (Zea mays); [11]): 0; Corn plant response rating (corn (Zea mays); [12]): 0; Plant response rating, Corn (corn (Zea mays); [13]): 0; Plant response rating, Corn (corn (Zea mays); [14]): 0; Plant response rating, Rice (0 to 100 scale, 0 is no effect, 100 is complete control) (rice (Oryza sativa)): 0; Plant response rating, Sedge, Umbrella (0 to 100 scale, 0 is no effect, 100 is complete control) [8]: 0; Plant response rating, Ducksalad (0 to 100 scale, 0 is no effect, 100 is complete control) [9]: 0; Plant response rating, Barnyardgrass (0 to 100 scale, 0 is no effect, 100 is complete control) [10]: 0
3 | CCc1nn(-c2ccc(F)cc2F)nc1Oc1ccnc(C(F)(F)F)c1 [Compound 178] | 30 | 80 | 20 | 100 | 90 | 90 | 90 | 100 | 60 | 90 | 90 | 100 | 90 | 100 | 100 | 100 | 100 | 100 | 60 | 100 | Plant response rating, Morningglory [4, 13]: 0; Plant response rating, Morningglory [4, 14]: 60; Plant response rating, Velvetleaf [6, 13]: 10; Plant response rating, Velvetleaf [6, 14]: 60; Plant response rating, Wheat [7, 11]: 20; Wheat plant response rating [7, 12]: 40; Plant response rating, Wheat [7, 13]: 0; Plant response rating, Wheat [7, 14]: 10; Plant response rating, Corn (corn (Zea mays); [11]): 20; Corn plant response rating (corn (Zea mays); [12]): 30; Plant response rating, Corn (corn (Zea mays); [13]): 0; Plant response rating, Corn (corn (Zea mays); [14]): 10; Plant response rating, Rice (0 to 100 scale, 0 is no effect, 100 is complete control) (rice (Oryza sativa)): 20; Plant response rating, Sedge, Umbrella (0 to 100 scale, 0 is no effect, 100 is complete control) [8]: 60; Plant response rating, Ducksalad (0 to 100 scale, 0 is no effect, 100 is complete control) [9]: 30; Plant response rating, Barnyardgrass (0 to 100 scale, 0 is no effect, 100 is complete control) [10]: 0
4 | CC(C)Cc1nn(-c2ccc(C(F)(F)F)cc2)nc1Oc1ccnc(C(F)(F)F)c1 [Compound 186] | 0 | 0 | 0 | 0 | 0 | 0 | 0 | 0 | 0 | 0 | 0 | 0 | 0 | 10 | 20 | 60 | 0 | 0 | 0 | 20 | Plant response rating, Morningglory [4, 13]: 0; Plant response rating, Morningglory [4, 14]: 0; Plant response rating, Velvetleaf [6, 13]: 0; Plant response rating, Velvetleaf [6, 14]: 0; Plant response rating, Wheat [7, 11]: 0; Wheat plant response rating [7, 12]: 0; Plant response rating, Wheat [7, 13]: 0; Plant response rating, Wheat [7, 14]: 0; Plant response rating, Corn (corn (Zea mays); [11]): 10; Corn plant response rating (corn (Zea mays); [12]): 20; Plant response rating, Corn (corn (Zea mays); [13]): 0; Plant response rating, Corn (corn (Zea mays); [14]): 0; Plant response rating, Rice (0 to 100 scale, 0 is no effect, 100 is complete control) (rice (Oryza sativa)): 0; Plant response rating, Sedge, Umbrella (0 to 100 scale, 0 is no effect, 100 is complete control) [8]: 0; Plant response rating, Ducksalad (0 to 100 scale, 0 is no effect, 100 is complete control) [9]: 0; Plant response rating, Barnyardgrass (0 to 100 scale, 0 is no effect, 100 is complete control) [10]: 0
5 | CC(C)Cc1nn(-c2ccc(C(F)(F)F)cc2)nc1Oc1ccnc(C(F)F)c1 [Compound 187] | 0 | 0 | 0 | 0 | 0 | 0 | 0 | 0 | 0 | 0 | 0 | 0 | 0 | 0 | 0 | 0 | 0 | 0 | 0 | 0 | Plant response rating, Morningglory [4, 13]: 0; Plant response rating, Morningglory [4, 14]: 0; Plant response rating, Velvetleaf [6, 13]: 0; Plant response rating, Velvetleaf [6, 14]: 0; Plant response rating, Wheat [7, 11]: 0; Wheat plant response rating [7, 12]: 0; Plant response rating, Wheat [7, 13]: 0; Plant response rating, Wheat [7, 14]: 0; Plant response rating, Corn (corn (Zea mays); [11]): 0; Corn plant response rating (corn (Zea mays); [12]): 0; Plant response rating, Corn (corn (Zea mays); [13]): 0; Plant response rating, Corn (corn (Zea mays); [14]): 0; Plant response rating, Rice (0 to 100 scale, 0 is no effect, 100 is complete control) (rice (Oryza sativa)): 0; Plant response rating, Sedge, Umbrella (0 to 100 scale, 0 is no effect, 100 is complete control) [8]: 0; Plant response rating, Ducksalad (0 to 100 scale, 0 is no effect, 100 is complete control) [9]: 0; Plant response rating, Barnyardgrass (0 to 100 scale, 0 is no effect, 100 is complete control) [10]: 0
